The values that follow come from patent US9358276B2, “Methods of diagnosing and treating small intestinal bacterial overgrowth (SIBO) and SIBO-related conditions” (Cedars-Sinai Medical Center, priority 1999, dated 2016).

For one test, the system named is upper gut transit. Description: Upper gut transit time by lactulose breath hydrogen test after oleate or oleic acid. Format: in vivo, human. The note with it: five patients with persistent diarrhea. An excerpt:
In a preliminary study, five patients with persistent diarrhea for 3 to 22 months, (one each due to vagal denervation, ileal resection for Crohn's disease, and vagotomy and antrectomy, and two due to idiopathic causes) were studied. […] This test relies on the metabolism of certain carbohydrate materials (e.g. lactulose) by the microbial flora within the caecum. By generating gas which can be detected in the expired air, it is possible to make some estimation about the initial arrival of the administered material within the colon.
Each patient received orally in random order, 0, 1.6 or 3.2 g of sodium oleate in 25 mL Ensure (Ross), followed by 100 mL water. Thirty minutes after each dose of oleate, patients received 10 g lactulose orally, followed by 25 mL water. Breath samples were collected in commercially available breath testing bags (Quintron, Menomonee Falls, Wis.) every 10-15 minutes, and the hydrogen content of the samples was measured using a breath analyzer (Microlyzer Model 12, Quintron Instruments, Menomonee Falls, Wis.), calibrated against gas samples of known hydrogen concentration. With a syringe, a 40-mL sample of the expired breath was withdrawn from the collection bag and analyzed immediately for hydrogen concentration (ppm). The hydrogen concentration value from each sample was plotted against time. Upper gut transit time was defined as the time in minutes from ingestion of lactulose (t0) until a rise of H2 of >10 ppm. Data were further analyzed using 1-way repeated measures analysis of variance (ANOVA)(See Table 4).
The effect of an active lipid on transit time was determined in 8 normal human subjects (1 male and 7 females with a mean age of 35±2.6 years [SE]) and 45 patients (20 males and 25 females with a mean age of 49.1±2.5 [SE], age range from 18 to 90 years) with chronic diarrhea (i.e., continuous diarrhea for more than two months) associated with a wide variety of diagnoses and conditions (e.g., Crohn's disease; irritable bowel syndrome; short bowel syndrome; Indiana pouch; AIDS; ulcerative colitis; vagotomy; antrectomy; ileostomy; partial and complete colectomy; colon cancer; diabetes mellitus type 1; pancreatic insufficiency; radiation enteropathy; esophagectomy/gastric pull-up; total and subtotal gastrectomy; gastrojejunostomy), made by referring gastroenterologists. The method was the same as described above, except oleic acid (Penta Manufacturing, Livingston, N.J.) replaced sodium oleate in 50 mL of Ensure emulsion. All subjects refrained from taking antibiotics for at least two weeks before each testing date and during stool measurement periods. Patients were also instructed to refrain from anti-diarrheal drugs, laxatives, somatostatin analogues or anticholinergics for at least 48 hours before each test. In both the normal and patient groups, there was a significant slowing of upper gut transit time in response to oleic acid, as summarized in Table 5 below (p<0.001).

Test [1] deals with rapid upper gut transit and diarrhea. Briefly: Continued pre-meal oleate/oleic acid treatment: diarrhea, stool output, symptoms. Format: in vivo, human. The text has this:
Continuing oleic acid treatment at home was offered to Aresponders≅ (i.e., patients who experienced a greater than 100% increase in baseline transit time with 3.2 g oleic acid). Of the 36 responders out of the original 45 patients, 18 provided records of stool volume and frequency on- and off-treatment for comparison. The inconvenient and unappealing nature of stool collection and measurement were the primary reasons reported by responders who chose not to participate in stool collection. After completing a set of three preliminary breath hydrogen tests, each participating responder was asked to refrain from taking oleic acid for two days in order to measure off-treatment stool output for a 24-hour period. Patients were issued a stool pattern record form and a stool collection container with graduated volume markings to record the frequency and volume of bowel movements. After two days without oleic acid, each patient took 3.2 g of oleic acid mixed with 25 mL of Ensure emulsion three times a day, 30 minutes before breakfast, lunch and dinner. After taking oleic acid for two days, patients recorded stool output for another 24-hour period. With this oleic acid emulsion treatment, stool frequency decreased from 6.9±0.8 to 5.4±0.9 bowel movements per 24-hour period (p<0.05), and stool volume decreased from 1829.0±368.6 to 1322.5±256.9 per 24-hour period (p<0.05).
The patient was a person with a history of adolescent-onset, persistent diarrhea. […] They presented with complaints of excessive gas, postprandial bloating, diarrhea and urgency, and 3 to 7 liquid bowel movements per day. Their upper gut transit times were (min) 30 (0 g oleic acid), 117 (1.6 g oleic acid) and 101 (3.2 g oleic acid).

The next test has as its system intestinal transit. Briefly: Intestinal transit in fistulated dogs, Sqrt AUC of cumulative marker recovery. The format is in vivo, dog. Here is the method:
In 4 dogs equipped with duodenal (10 cm from pylorus) and mid-gut (160 cm from pylorus) fistulas, as described hereinbelow (Example 14), intestinal transit was compared across an isolated 150 cm test segment (between fistulas) while 0, 15, 30 or 60 mM oleate was delivered into either the proximal or distal segment of the gut as a solution of mixed micelles in pH 7.0 phosphate buffer at 2 mL/min for 90 minutes. The segment of gut not receiving oleate was perfused with phosphate buffer, pH 7.0, at 2 mL/min. 60 minutes after the start of the perfusion, […] of ^99mTc-DTPA (diethylenetriaminepentaacetic acid) was delivered as a bolus into the test segment. Intestinal transit was then measured by counting the radioactivity of 1 ml samples collected every 5 minutes from the diverted output of the mid-gut fistula.
Intestinal transit was calculated by determining the area under the curve (AUC) of the cumulative percent recovery of the radioactive marker. The square root values of the AUC (Sqrt AUC), where 0=no recovery by 30 minutes and 47.4=theoretical, instantaneous complete recovery by time 0, were compared across region of fat exposure and oleate dose using 2-way repeated measures ANOVA (see Table 6 below).

For test [2], the system named is SIBO. Briefly: Neomycin treatment of chronic fatigue syndrome subjects with SIBO. Format: in vivo, human. As for the experimental part: Thirty of 202 subjects in the database ([…]) had received a diagnosis of chronic fatigue syndrome. Of these 30 subjects, 21 (70%) had SIBO as indicated by LBHT, but four out of the nine without SIBO had recently taken antibiotics. Therefore, the prevalence of SIBO was 21 out of 26 (81%) subjects with a diagnosis of CFS. After treatment with neomycin (500 mg twice daily, 10-day course), nine of the 21 subjects diagnosed with CFS, returned for follow-up LBHT and questionnaire. […] (Table 2).

Test [3] relates to SIBO. Description: Case: impaired memory/mentation with SIBO, neomycin. The note with it: one patient. Format: in vivo, human. The text has this:
The patient was a person with a history of chronic intestinal complaints over several years. They experienced altered bowel habits with alternating diarrhea and constipation with bloating, gas, distension and abdominal pain. Also, they had been diagnosed by several psychiatrists as having psychiatric problems due to decreased mentation from mild senility, and they contemplated psychiatric hospitalization.
SIBO was detected in this patient by LBHT.

As for `CCCCCCCC/C=C\CCCCCCCC(=O)[O-].[Na+]` [oleate, sodium oleate], the “Transit time (mean ± SE)” value in the test on upper gut transit (1.6 g sodium oleate in 25 mL Ensure) was 116 ± 11.1 min; in the test on upper gut transit (3.2 g sodium oleate in 25 mL Ensure), 140 ± 11.5 min. Also, in test [1] (all five patients, prolonged ingestion 15-30 minutes prior to meals), the diarrhea entry was “reduced diarrhea”. The “chronic abdominal pain, post prandial bloating and nausea” value in test [1] (patient with Crohn's disease) is listed as “complete resolution”. In test [1] (patient with Crohn's disease), the weight gained is 22 lbs. For the same compound, the postprandial dumping syndrome result in test [1] (patient with vagotomy and antrectomy) is recorded as “resolution of postprandial dumping syndrome”. Also, the “Sqrt AUC of cumulative percent marker recovery (mean ± SE)” value in the test with intestinal transit (Distal 1/2 of gut, 15 mM) is 25.6 ± 1.4; in the test on intestinal transit (Distal 1/2 of gut, 30 mM), 18.9 ± 1.5; in the test with intestinal transit (Distal 1/2 of gut, 60 mM), 7.0 ± 3.8; in the test with intestinal transit (Proximal 1/2 of gut, 15 mM, buffer control 41.4 ± 4.6), 41.6 ± 1.4; with intestinal transit (Proximal 1/2 of gut, 30 mM), 40.6 ± 10.2; in the test on intestinal transit (Proximal 1/2 of gut, 60 mM) it was 34.4 ± 3.0.
For neomycin, the “eradication of SIBO (LBHT)” value in the test with SIBO [2] (all nine CFS subjects) was “at least partially eradication of SIBO”. For the same compound, the “VAS score Fatigue, After Antibiotic” value in the test with SIBO [2] (nine CFS patients) amounted to 3.5 ± 1.4. The “VAS score Bloating, After Antibiotic” value in the test on SIBO [2] (nine CFS patients, neomycin 500 mg twice daily, 10-day course) amounted to 2.3 ± 1.7. Also, the quality of life entry in the test with SIBO [3] is reported as “dramatic improvement”. Also, in the test on SIBO [3] (500 mg twice a day for ten days), the “eradication of SIBO condition” value is recorded as “completely eradicated”.
